Reference: ChEMBL document CHEMBL1140537, “DNA cleavage by photolysis of aryl sulfoxides” (Bioorg Med Chem Lett, 2007)
Active and inactive are the calls of the source. No cut-off for these calls is given here.

Experiments:
Homo sapiens [1] = species: Homo sapiens; test: Cleavage of DNA at 180 uM in anaerobic condition
Homo sapiens [2] = species: Homo sapiens; test: Cleavage of DNA at 180 uM
Homo sapiens [3] = species: Homo sapiens; test: Cleavage of DNA at 180 uM in presence of cysteine
Homo sapiens [4] = species: Homo sapiens; test: Cleavage of DNA at 360 uM

Structure (SMILES)	Activity (Homo sapiens [1])	Activity (Homo sapiens [2])	Activity (Homo sapiens [3])	Activity (Homo sapiens [4])
[O-][S+](c1ccccc1)c1ccccc1	inactive	Active	inactive	–
C[S+]([O-])c1ccccc1 (centres undefined)	–	–	–	Active
